Experiments:
barnyardgrass [1] = assay: Test C preemergence; assay type: in vivo, Echinochloa crusgalli
Method in brief: (§1)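 Soil-applied (pre) and foliar (post, 1–2 leaf, 2–10 cm) sprays; surfactant-containing non-phytotoxic solvent vehicle; loam/sand substrate. Readout: visual % control at 10 d, greenhouse, versus untreated.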

ragweed [2] = assay: Test C preemergence; assay type: in vivo, Ambrosia artemisiifolia
Method in brief: as §1

oat, wild [3] = assay: Test C postemergence; assay type: in vivo, Avena fatua; conditions: 10 days, 0 to 100 scale (0 no effect, 100 complete control)
Method in brief: as §1

sedge, umbrella = assay: Test D flooded paddy test; assay type: in vivo, Cyperus difformis; conditions: 250 g ai/ha, applied to paddy water, visual rating after 13 to 14 days, scale 0 to 100 (0 no effect, 100 complete control)
Method in brief: (§2)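 Post-flood water application at the 2-leaf stage; 3 cm flood depth kept constant; visual control rating 0–100 after 13–14 days greenhouse growth.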

pigweed, palmer [4] = assay: Test C postemergence; assay type: in vivo, Amaranthus palmeri; conditions: 10 days, 0 to 100 scale (0 no effect, 100 complete control)
Method in brief: as §1

ryegrass, Italian [5] = assay: Test C preemergence; assay type: in vivo, Lolium multiflorum
Method in brief: as §1

blackgrass [6] = assay: Test C preemergence; assay type: in vivo, Alopecurus myosuroides
Method in brief: as §1

galium = assay: Test C postemergence; assay type: in vivo, Galium aparine; conditions: Postemergence, 125 g ai/ha; 0 to 100 scale (0 no effect, 100 complete control), 10 days
Method in brief: as §1

ryegrass, Italian [7] = assay: Test C postemergence; assay type: in vivo, Lolium multiflorum; conditions: Postemergence, 125 g ai/ha; 0 to 100 scale (0 no effect, 100 complete control), 10 days
Method in brief: as §1

rice = assay: Test D flooded paddy test; assay type: in vivo, Oryza sativa; conditions: 250 g ai/ha, applied to paddy water, visual rating after 13 to 14 days, scale 0 to 100 (0 no effect, 100 complete control)
Method in brief: as §2

barnyardgrass [8] = assay: Test C postemergence; assay type: in vivo, Echinochloa crusgalli; conditions: 10 days, 0 to 100 scale (0 no effect, 100 complete control)
Method in brief: as §1

corn [9] = assay: Test C postemergence; assay type: in vivo, Zea mays; conditions: 10 days, 0 to 100 scale (0 no effect, 100 complete control)
Method in brief: as §1

green foxtail [10] = assay: Test C preemergence; assay type: in vivo, Setaria viridis
Method in brief: as §1

soybean [11] = assay: Test C postemergence; assay type: in vivo, Glycine max; conditions: Postemergence, 125 g ai/ha; 0 to 100 scale (0 no effect, 100 complete control), 10 days
Method in brief: as §1

wheat [12] = assay: Test C postemergence; assay type: in vivo, Triticum aestivum; conditions: Postemergence, 125 g ai/ha; 0 to 100 scale (0 no effect, 100 complete control), 10 days
Method in brief: as §1

ragweed [13] = assay: Test C postemergence; assay type: in vivo, Ambrosia artemisiifolia; conditions: Postemergence, 125 g ai/ha; 0 to 100 scale (0 no effect, 100 complete control), 10 days
Method in brief: as §1

kochia [14] = assay: Test C preemergence; assay type: in vivo, Bassia scoparia
Method in brief: as §1

pigweed, palmer [15] = assay: Test C preemergence; assay type: in vivo, Amaranthus palmeri
Method in brief: as §1

green foxtail [16] = assay: Test C postemergence; assay type: in vivo, Setaria viridis; conditions: 10 days, 0 to 100 scale (0 no effect, 100 complete control)
Method in brief: as §1

blackgrass [17] = assay: Test C postemergence; assay type: in vivo, Alopecurus myosuroides; conditions: 10 days, 0 to 100 scale (0 no effect, 100 complete control)
Method in brief: as §1

corn [18] = assay: Test C preemergence; assay type: in vivo, Zea mays
Method in brief: as §1

wheat [19] = assay: Test C preemergence; assay type: in vivo, Triticum aestivum
Method in brief: as §1

horseweed = assay: Test C postemergence; assay type: in vivo, Erigeron canadensis; conditions: 10 days, 0 to 100 scale (0 no effect, 100 complete control)
Method in brief: as §1

barnyardgrass [20] = assay: Test D flooded paddy test; assay type: in vivo, Echinochloa crus-galli; conditions: 250 g ai/ha, applied to paddy water, visual rating after 13 to 14 days, scale 0 to 100 (0 no effect, 100 complete control)
Method in brief: as §2

oat, wild [21] = assay: Test C preemergence; assay type: in vivo, Avena fatua
Method in brief: as §1

ducksalad = assay: Test D flooded paddy test; assay type: in vivo, Heteranthera limosa; conditions: 250 g ai/ha, applied to paddy water, visual rating after 13 to 14 days, scale 0 to 100 (0 no effect, 100 complete control)
Method in brief: as §2

soybean [22] = assay: Test C preemergence; assay type: in vivo, Glycine max
Method in brief: as §1

kochia [23] = assay: Test C postemergence; assay type: in vivo, Bassia scoparia; conditions: 10 days, 0 to 100 scale (0 no effect, 100 complete control)
Method in brief: as §1

[24] = 500 g ai/ha, preemergence, 0 to 100 scale (0 no effect, 100 complete control)
[25] = Preemergence, 125 g ai/ha, 0 to 100 scale, 0 no effect, 100 complete control

In the case of `COC[C@H]1CN(C(=O)c2cc(-n3cnc(C(C)(C)O)n3)ccc2OC)c2cccc(Cl)c2O1` [Compound 408], the “Barnyardgrass plant response rating” value (barnyardgrass [1]; [24]) is reported as 100, the “Plant response rating, Barnyardgrass” value (barnyardgrass [1]; [25]) is reported as 60 and the “Ragweed plant response rating” value (ragweed [2]; [24]) is reported as 90. The “Plant response rating, Ragweed” value (ragweed [2]; [25]) was 60, the “Plant response rating, Oat, Wild” value (oat, wild [3]; 500 g ai/ha, postemergence) was 90 and the “Plant response rating, Oat, Wild” value (oat, wild [3]; Postemergence, 125 g ai/ha) was 30. For the same molecule, the “Plant response rating, Sedge, Umbrella (Flood)” value (sedge, umbrella) was 98, the “Plant response rating, Pigweed, Palmer” value (pigweed, palmer [4]; 500 g ai/ha, postemergence) was 80 and the “Plant response rating, Pigweed, Palmer” value (pigweed, palmer [4]; Postemergence, 125 g ai/ha) was 80. The “Ryegrass, Italian plant response rating” value (ryegrass, Italian [5]; [24]) was 80, the “Plant response rating, Ryegrass, Italian” value (ryegrass, Italian [5]; [25]) was 60 and the “Blackgrass plant response rating” value (blackgrass [6]; [24]) was 80. For the same molecule, the “Plant response rating, Blackgrass” value (blackgrass [6]; [25]) was 10, the “Plant response rating, Galium” value (galium) was 100 and the “Plant response rating, Ryegrass, Italian” value (ryegrass, Italian [7]) was 70. The “Plant response rating, Rice (Flood)” value (rice) was 15, the “Plant response rating, Barnyardgrass” value (barnyardgrass [8]; 500 g ai/ha, postemergence) was 60 and the “Plant response rating, Barnyardgrass” value (barnyardgrass [8]; Postemergence, 125 g ai/ha) was 10. The “Plant response rating, Corn” value (corn [9]; 500 g ai/ha, postemergence) was 80, the “Plant response rating, Corn” value (corn [9]; Postemergence, 125 g ai/ha) was 10 and the “Foxtail, Green plant response rating” value (green foxtail [10]; [24]) was 100. The “Plant response rating, Foxtail, Green” value (green foxtail [10]; [25]) was 100, the “Plant response rating, Soybean” value (soybean [11]) was 100 and the “Plant response rating, Wheat” value (wheat [12]) was 30. For the same molecule, the “Plant response rating, Ragweed” value (ragweed [13]) was 50, the “Kochia plant response rating” value (kochia [14]; [24]) was 100 and the “Plant response rating, Kochia” value (kochia [14]; [25]) was 70. The “Pigweed, Palmer plant response rating” value (pigweed, palmer [15]; [24]) was 100, the “Plant response rating, Pigweed, Palmer” value (pigweed, palmer [15]; [25]) was 100 and the “Plant response rating, Foxtail, Green” value (green foxtail [16]; 500 g ai/ha, postemergence) was 60. For the same molecule, the “Plant response rating, Foxtail, Green” value (green foxtail [16]; Postemergence, 125 g ai/ha) was 20, the “Plant response rating, Blackgrass” value (blackgrass [17]; 500 g ai/ha, postemergence) was 70 and the “Plant response rating, Blackgrass” value (blackgrass [17]; Postemergence, 125 g ai/ha) was 0. The “Corn plant response rating” value (corn [18]; [24]) was 60, the “Plant response rating, Corn” value (corn [18]; [25]) was 0 and the “Wheat plant response rating” value (wheat [19]; [24]) was 60. The “Plant response rating, Wheat” value (wheat [19]; [25]) was 20, the “Plant response rating, Horseweed” value (horseweed; 500 g ai/ha, postemergence) was 60 and the “Plant response rating, Horseweed” value (horseweed; Postemergence, 125 g ai/ha) was 0. For the same molecule, the “Plant response rating, Barnyardgrass (Flood)” value (barnyardgrass [20]) was 10, the “Oat, Wild plant response rating” value (oat, wild [21]; [24]) was 60 and the “Plant response rating, Oat, Wild” value (oat, wild [21]; [25]) was 30. For the same molecule, the “Plant response rating, Ducksalad (Flood)” value (ducksalad) was 90, the “Soybean plant response rating” value (soybean [22]; [24]) was 100 and the “Plant response rating, Soybean” value (soybean [22]; [25]) was 80. For the same molecule, the “Plant response rating, Kochia” value (kochia [23]; 500 g ai/ha, postemergence) was 90 and the “Plant response rating, Kochia” value (kochia [23]; Postemergence, 125 g ai/ha) was 70.

Source: US20260262643A1, “HERBICIDAL BENZOXAZINES” (FMC CORPORATION, priority 2022, published 2026)
